Data: PubChem BioAssay AID1963852 (Molecular Pharmacology Branch, DTP, NCI, 2024)

Test system: 282377-053-R-J1-PDC complex spheroid viability
Experiment: Anticancer human tumor 282377-053-R-J1-PDC patient-derived colon adenocarcinoma cell line growth inhibition [POLQ]
Conditions: for IC50: curve of first compound; for viability, T/C: stronger effect = lower value; active means viability on the fitted dose curve at most 10% of control; inactive means the rest
Outline: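 Complex spheroid viability model combining PDC tumour cells with endothelial (HUVEC) and MSC stromal cells. Novobiocin, ART-558 or RP6685 were tested singly and in combination with standard and investigational anticancer drugs. Each was titrated in half-log steps from near clinical Cmax, or from 10 microM where Cmax was unknown.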

[1] = second compound 0.0316 µM, first compound 0.0316 µM
[2] = second compound 0.0316 µM, first compound 0.1 µM
[3] = second compound 0.0316 µM, first compound 0.316 µM
[4] = second compound 0.0316 µM, first compound 1 µM
[5] = second compound 0.1 µM, first compound 0.0316 µM
[6] = second compound 0.1 µM, first compound 0.1 µM
[7] = second compound 0.1 µM, first compound 0.316 µM
[8] = second compound 0.1 µM, first compound 1 µM
[9] = second compound 0.316 µM, first compound 0.0316 µM
[10] = second compound 0.316 µM, first compound 0.1 µM
[11] = second compound 0.316 µM, first compound 0.316 µM
[12] = second compound 0.316 µM, first compound 1 µM
[13] = second compound 1 µM, first compound 0.0316 µM
[14] = second compound 1 µM, first compound 0.1 µM
[15] = second compound 1 µM, first compound 0.316 µM
[16] = second compound 1 µM, first compound 1 µM
[17] = second compound 3.16 µM, first compound 0.0316 µM
[18] = second compound 3.16 µM, first compound 0.1 µM
[19] = second compound 3.16 µM, first compound 0.316 µM
[20] = second compound 3.16 µM, first compound 1 µM
[21] = second compound 10 µM, first compound 0.0316 µM
[22] = second compound 10 µM, first compound 0.1 µM
[23] = second compound 10 µM, first compound 0.316 µM
[24] = second compound 10 µM, first compound 1 µM
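Further: spheroids exposed to compounds for seven days.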
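Wherever viability, T/C is given: 100% = DMSO vehicle control viability.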

CCCS(=O)(=O)Nc1ccc(F)c(C(=O)c2c[nH]c3ncc(-c4ccc(Cl)cc4)cc23)c1F + Nc1ccc(C#CCN(C(=O)Cc2ncc(C(F)(F)F)cc2C(F)(F)F)c2ccc(F)cc2)nn1
> 10 µM: IC50 (second compound 0.0316 µM) | IC50 (second compound 0.1 µM) | IC50 (second compound 0.316 µM) | IC50 (second compound 1 µM) | IC50 (second compound 3.16 µM) | IC50 (second compound 10 µM)
inactive: viability, T/C [1] 94.3% | viability, T/C [2] 77% | viability, T/C [3] 71.1% | viability, T/C [4] 57.9% | viability, T/C (second compound 0.0316 µM, first compound 3.16 µM) 60.4% | viability, T/C (second compound 0.0316 µM, first compound 10 µM) 61.9% | viability, T/C [5] 105% | viability, T/C [6] 80.2% | viability, T/C [7] 77% | viability, T/C [8] 60.5% | viability, T/C (second compound 0.1 µM, first compound 3.16 µM) 77.2% | viability, T/C (second compound 0.1 µM, first compound 10 µM) 80.7% | viability, T/C [9] 81.5% | viability, T/C [10] 81% | viability, T/C [11] 73% | viability, T/C [12] 70.9% | viability, T/C (second compound 0.316 µM, first compound 3.16 µM) 66.2% | viability, T/C (second compound 0.316 µM, first compound 10 µM) 74.1% | viability, T/C [13] 99.8% | viability, T/C [14] 93.9% | viability, T/C [15] 68.9% | viability, T/C [16] 62.4% | viability, T/C (second compound 1 µM, first compound 3.16 µM) 59.1% | viability, T/C (second compound 1 µM, first compound 10 µM) 60.1% | viability, T/C [17] 120% | viability, T/C [18] 90% | viability, T/C [19] 69.5% | viability, T/C [20] 78.8% | viability, T/C (second compound 3.16 µM, first compound 3.16 µM) 63.4% | viability, T/C (second compound 3.16 µM, first compound 10 µM) 70.4% | viability, T/C [21] 107% | viability, T/C [22] 97.6% | viability, T/C [23] 80.8% | viability, T/C [24] 71.9% | viability, T/C (second compound 10 µM, first compound 3.16 µM) 63.9% | viability, T/C (second compound 10 µM, first compound 10 µM) 65.3%

C=CCn1c(=O)c2cnc(Nc3ccc(N4CCN(C)CC4)cc3)nc2n1-c1cccc(C(C)(C)O)n1 + Nc1ccc(C#CCN(C(=O)Cc2ncc(C(F)(F)F)cc2C(F)(F)F)c2ccc(F)cc2)nn1
inactive: viability, T/C (second compound 0.0316 µM, first compound 0.00316 µM) 122% | viability, T/C (second compound 0.0316 µM, first compound 0.01 µM) 102% | viability, T/C [1] 99.1% | viability, T/C [2] 98.3% | viability, T/C [3] 81.8% | viability, T/C [4] 69% | viability, T/C (second compound 0.1 µM, first compound 0.00316 µM) 96.3% | viability, T/C (second compound 0.1 µM, first compound 0.01 µM) 110% | viability, T/C [5] 89.4% | viability, T/C [6] 107% | viability, T/C [7] 90.7% | viability, T/C [8] 70.1% | viability, T/C (second compound 0.316 µM, first compound 0.00316 µM) 102% | viability, T/C (second compound 0.316 µM, first compound 0.01 µM) 96.9% | viability, T/C [9] 99.2% | viability, T/C [10] 86.1% | viability, T/C [11] 91.8% | viability, T/C [12] 61.4% | viability, T/C (second compound 1 µM, first compound 0.00316 µM) 106% | viability, T/C (second compound 1 µM, first compound 0.01 µM) 91.8% | viability, T/C [13] 79.9% | viability, T/C [14] 86.2% | viability, T/C [15] 93.8% | viability, T/C [16] 67.6% | viability, T/C (second compound 3.16 µM, first compound 0.00316 µM) 117% | viability, T/C (second compound 3.16 µM, first compound 0.01 µM) 110% | viability, T/C [17] 93.8% | viability, T/C [18] 102% | viability, T/C [19] 85.3% | viability, T/C [20] 84.6% | viability, T/C (second compound 10 µM, first compound 0.00316 µM) 117% | viability, T/C (second compound 10 µM, first compound 0.01 µM) 100% | viability, T/C [21] 96.7% | viability, T/C [22] 94.7% | viability, T/C [23] 100% | viability, T/C [24] 78.2%
> 1 µM: IC50 (second compound 0.0316 µM) | IC50 (second compound 0.1 µM) | IC50 (second compound 0.316 µM) | IC50 (second compound 1 µM) | IC50 (second compound 3.16 µM) | IC50 (second compound 10 µM)
